Toxic doses and inconclusive results are not listed. No stated cut-off is given here; in the data, active means T/C of 150% or more; inactive means T/C below 125%.
Tested on: L1210 leukemia ip in BDF1 mice, survival T/C
Experiment: NCI In Vivo Anticancer Drug Screen. Data for tumor model L1210 Leukemia (intraperitoneal) in B6D2F1 (BDF1) mice
Details: endpoint: mean survival time, higher = longer survival
Procedure, shortened: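 In this screen, tumor-bearing mice given compound are compared to those given vehicle, and their survival values are reported as a treated-to-control quotient.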

[1] = dose: 100.0 mg/kg/injection, schedule: Q01DX009 (ip), vehicle: saline
[2] = dose: 200.0 mg/kg/injection, schedule: Q01DX009 (ip), vehicle: saline
[3] = dose: 400.0 mg/kg/injection, schedule: Q01DX009 (ip), vehicle: saline
[4] = dose: 100.0 mg/kg/injection, schedule: Q01DX001 (ip), vehicle: saline
[5] = dose: 200.0 mg/kg/injection, schedule: Q01DX001 (ip), vehicle: saline
[6] = dose: 100.0 mg/kg/injection, schedule: Q01DX009 (ip), vehicle: Klucel (hydroxypropylcellulose) (HPC)
[7] = dose: 200.0 mg/kg/injection, schedule: Q01DX009 (ip), vehicle: Klucel (hydroxypropylcellulose) (HPC)
[8] = dose: 400.0 mg/kg/injection, schedule: Q01DX009 (ip), vehicle: Klucel (hydroxypropylcellulose) (HPC)
[9] = dose: 400.0 mg/kg/injection, schedule: Q01DX001 (ip), vehicle: saline
[10] = dose: 100.0 mg/kg/injection, schedule: Q04DX002 (ip), vehicle: Klucel (hydroxypropylcellulose) (HPC)
[11] = dose: 200.0 mg/kg/injection, schedule: Q04DX002 (ip), vehicle: Klucel (hydroxypropylcellulose) (HPC)
[12] = dose: 400.0 mg/kg/injection, schedule: Q04DX002 (ip), vehicle: Klucel (hydroxypropylcellulose) (HPC)

Measured: T/C

O=S1(=O)CCCCC1Cl (stereo unspecified)
inactive: dose: 38.0 mg/kg/injection, schedule: Q01DX009 (ip), vehicle: other 96 % of control | dose: 75.0 mg/kg/injection, schedule: Q01DX001 (ip), vehicle: other 100 % of control | dose: 75.0 mg/kg/injection, schedule: Q01DX009 (ip), vehicle: other 89 % of control | dose: 75.0 mg/kg/injection, schedule: Q04DX003 (ip), vehicle: other 98 % of control | dose: 150.0 mg/kg/injection, schedule: Q01DX001 (ip), vehicle: other 100 % of control | dose: 150.0 mg/kg/injection, schedule: Q01DX009 (ip), vehicle: other 91 % of control | dose: 150.0 mg/kg/injection, schedule: Q04DX003 (ip), vehicle: other 98 % of control | dose: 300.0 mg/kg/injection, schedule: Q01DX001 (ip), vehicle: other 103 % of control

[O-][n+]1ccc(Cl)cc1
inactive: [1] 100 % of control | [2] 96 % of control | [3] 94 % of control

CCC(C)(CCC(C)C)c1ccncc1 (stereo unspecified)
inactive: [4] 106 % of control | [5] 98 % of control

CN1c2ccccc2NP1(=S)c1ccccc1 (stereo unspecified)
inactive: dose: 100.0 mg/kg/injection, schedule: Q04DX002 (ip), vehicle: saline with Tween-80 90 % of control | dose: 200.0 mg/kg/injection, schedule: Q04DX002 (ip), vehicle: saline with Tween-80 90 % of control | dose: 400.0 mg/kg/injection, schedule: Q04DX002 (ip), vehicle: saline with Tween-80 87 % of control

O=C(CCCO)N/N=C\c1ccc([N+](=O)[O-])s1
inactive: dose: 100.0 mg/kg/injection, schedule: Q04DX003 (ip), vehicle: saline 95 % of control | dose: 200.0 mg/kg/injection, schedule: Q04DX003 (ip), vehicle: saline 93 % of control | dose: 400.0 mg/kg/injection, schedule: Q04DX003 (ip), vehicle: saline 101 % of control

N#C/C(=N/O)c1ccccn1
inactive: [6] 96 % of control | [1] 100 % of control | [7] 100 % of control | [2] 107 % of control | [3] 92 % of control

O=[N+]([O-])c1ccccc1SNc1ccc(NSc2ccccc2[N+](=O)[O-])cc1
inactive: dose: 3.13 mg/kg/injection, schedule: Q01DX001 (ip), vehicle: saline with Tween-80 105 % of control | dose: 6.25 mg/kg/injection, schedule: Q01DX001 (ip), vehicle: saline with Tween-80 100 % of control | dose: 12.5 mg/kg/injection, schedule: Q01DX001 (ip), vehicle: saline with Tween-80 97 % of control

COc1ccc(CCC(C)=O)cc1
inactive: [6] 96 % of control | dose: 100.0 mg/kg/injection, schedule: Q04DX003 (ip), vehicle: Klucel (hydroxypropylcellulose) (HPC) 89 % of control | [7] 105 % of control | dose: 200.0 mg/kg/injection, schedule: Q04DX003 (ip), vehicle: Klucel (hydroxypropylcellulose) (HPC) 102 % of control | [8] 96 % of control | dose: 400.0 mg/kg/injection, schedule: Q04DX003 (ip), vehicle: Klucel (hydroxypropylcellulose) (HPC) 98 % of control

Cc1cc(S(=O)(=O)Cl)c(Cl)cc1Cl
inactive: [4] 96 % of control | [5] 103 % of control | [9] 96 % of control

C=CC1OC2OC(C)(C)OC2C1O (stereo unspecified)
inactive: dose: 5.0 mg/kg/injection, schedule: Q01DX001 (ip), vehicle: saline 91 % of control | dose: 10.0 mg/kg/injection, schedule: Q01DX001 (ip), vehicle: saline 98 % of control | dose: 18.7 mg/kg/injection, schedule: Q01DX001 (ip), vehicle: steriod suspending solution 108 % of control | dose: 20.0 mg/kg/injection, schedule: Q01DX001 (ip), vehicle: saline 93 % of control | dose: 37.5 mg/kg/injection, schedule: Q01DX001 (ip), vehicle: steriod suspending solution 103 % of control | dose: 40.0 mg/kg/injection, schedule: Q01DX001 (ip), vehicle: saline 96 % of control | dose: 75.0 mg/kg/injection, schedule: Q01DX001 (ip), vehicle: steriod suspending solution 109 % of control | dose: 150.0 mg/kg/injection, schedule: Q01DX001 (ip), vehicle: steriod suspending solution 98 % of control | dose: 200.0 mg/kg/injection, schedule: Q01DX001 (ip), vehicle: steriod suspending solution 104 % of control | dose: 400.0 mg/kg/injection, schedule: Q01DX001 (ip), vehicle: steriod suspending solution 103 % of control

O=C(Oc1cc(Cl)c(S(=O)(=O)F)cc1Cl)c1ccc([N+](=O)[O-])cc1
inactive: [10] 99 % of control | [11] 99 % of control | [12] 92 % of control

COc1ccc(NC(=O)Oc2ccc(Cl)cc2Cl)c(OC)c1
inactive: [6] 114 % of control | [7] 101 % of control

CCC12C=CCN3CCC4(c5cc(C(c6ccc(OC)cc6)c6cc7ccccc7n6S(=O)(=O)c6ccccc6)c(OC)cc5N(C)C4C(O)(C(=O)OC)C1OC(C)=O)C32 (stereo unspecified)
inactive: dose: 50.0 mg/kg/injection, schedule: Q04DX002 (ip), vehicle: Klucel (hydroxypropylcellulose) (HPC) 98 % of control | [10] 98 % of control | [11] 102 % of control

O=C(Nc1ccc(Cl)c([N+](=O)[O-])c1)N(CC(O)c1ccccc1)C1CCCCC1 (stereo unspecified)
inactive: [6] 93 % of control | [7] 93 % of control | [8] 87 % of control

CC(=O)CCc1ccc(Cl)cc1
inactive: dose: 50.0 mg/kg/injection, schedule: Q01DX001 (ip), vehicle: saline 101 % of control | [4] 107 % of control | [10] 105 % of control | [5] 107 % of control | [11] 105 % of control | [9] 106 % of control | [12] 105 % of control

O=c1[nH]c2ccc(Cl)cc2c(=O)o1
inactive: [4] 92 % of control | [1] 100 % of control | [5] 95 % of control | [2] 98 % of control | [9] 101 % of control | [3] 90 % of control

CN(C)c1ccc(C(=O)NO)cc1
inactive: [6] 97 % of control | [7] 105 % of control | [8] 100 % of control

Clc1ccc(-c2cc(=[N+]3CC[N+](=c4cc(-c5ccc(Cl)cc5)ss4)CC3)ss2)cc1
inactive: dose: 50.0 mg/kg/injection, schedule: Q01DX009 (ip), vehicle: water 102 % of control | dose: 100.0 mg/kg/injection, schedule: Q01DX009 (ip), vehicle: water 89 % of control | dose: 100.0 mg/kg/injection, schedule: Q04DX003 (ip), vehicle: water 106 % of control | dose: 200.0 mg/kg/injection, schedule: Q01DX009 (ip), vehicle: water 105 % of control | dose: 200.0 mg/kg/injection, schedule: Q04DX003 (ip), vehicle: water 104 % of control | dose: 400.0 mg/kg/injection, schedule: Q04DX003 (ip), vehicle: water 107 % of control

CNC(=O)NC1C(O)COC(OC)C1O (stereo unspecified)
inactive: dose: 6.25 mg/kg/injection, schedule: Q01DX009 (ip), vehicle: saline with Tween-80 101 % of control | dose: 12.5 mg/kg/injection, schedule: Q01DX009 (ip), vehicle: saline with Tween-80 101 % of control | dose: 25.0 mg/kg/injection, schedule: Q01DX009 (ip), vehicle: saline with Tween-80 105 % of control | dose: 50.0 mg/kg/injection, schedule: Q01DX009 (ip), vehicle: saline with Tween-80 100 % of control

CCCCCCCCCCC1CCC(CCCCCCCCCC)CC1 (stereo unspecified)
inactive: dose: 100.0 mg/kg/injection, schedule: Q01DX001 (ip), vehicle: other 106 % of control | dose: 200.0 mg/kg/injection, schedule: Q01DX001 (ip), vehicle: other 107 % of control | dose: 400.0 mg/kg/injection, schedule: Q01DX001 (ip), vehicle: other 91 % of control
